Where two headings read alike, the source gives them in different places.
Test system: panel of 140 standard cancer cell lines
Experiment: ProliFiler-140 cancer cell line screen (CellTiterGlo, 72 h)
Type: cell-based
Procedure: Incubations were performed for 72 h before automated viability readout with CellTiterGlo (Figure 8).
End of Figure S11 (part 5 of 5): ProliFiler-140 cancer cell line screening for cytotoxicity of the prodrugs.
8-data-point dose response curves from CellTiter-Glo® viability readout.
ProliFiler-140 cell line panel part V

`COc1cc2cc(C(=O)N3C[C@@H](CCl)c4c3cc(OC(=O)N3CCN(C(=O)CCC(=O)N5CCN(C)CC5)[C@H]5CSSC[C@H]53)c3ccccc43)[nH]c2c(OC)c1OC` [P-SS66C-CBI-TMI] gave an IC50 (read-out: IC50 [M] (ProliFiler-140), BxPC-3 (Pancreas)) of 4.6e-08 M, an IC50 (read-out: IC50 [M] (ProliFiler-140), COR-L279 (Lung)) of 7.23e-09 M and an IC50 (read-out: IC50 [M] (ProliFiler-140), COV434 (Ovary)) of 1.48e-08 M. For the same compound, the IC50 (read-out: IC50 [M] (ProliFiler-140), Calu-6 (Lung)) was 5.9e-08 M, the IC50 (read-out: IC50 [M] (ProliFiler-140), Colo 205 (Colon)) was 8.61e-08 M and the IC50 (read-out: IC50 [M] (ProliFiler-140), DU-145 (Prostate)) was 1.62e-08 M. It also gave an IC50 (read-out: IC50 [M] (ProliFiler-140), EFM-19 (Breast)) of 3.12e-07 M, an IC50 (read-out: IC50 [M] (ProliFiler-140), EFO-27 (Ovary)) of 6.19e-08 M and an IC50 (read-out: IC50 [M] (ProliFiler-140), EPLC-272H (Lung)) of 4.6e-08 M. For the same compound, the IC50 (read-out: IC50 [M] (ProliFiler-140), H460 (Lung)) was 5.51e-09 M, the IC50 (read-out: IC50 [M] (ProliFiler-140), H1299 (Lung)) was 5.4e-08 M and the IC50 (read-out: IC50 [M] (ProliFiler-140), H2228 (Lung)) was 4.5e-08 M. For the same compound, the IC50 (read-out: IC50 [M] (ProliFiler-140), HCC202 (Breast)) was 9.13e-08 M, the IC50 (read-out: IC50 [M] (ProliFiler-140), HCC827 (Lung)) was 9.11e-08 M and the IC50 (read-out: IC50 [M] (ProliFiler-140), HEC-1-B (Endometrium)) was 3.99e-07 M. It also gave an IC50 (read-out: IC50 [M] (ProliFiler-140), HL-60 (Blood)) of 1.52e-08 M, an IC50 (read-out: IC50 [M] (ProliFiler-140), HT-29 (Colon)) of 1.05e-07 M and an IC50 (read-out: IC50 [M] (ProliFiler-140), HT-1080 (Fibrosarcoma)) of 2.1e-08 M. For the same compound, the IC50 (read-out: IC50 [M] (ProliFiler-140), HeLa (Ovary)) was 9.9e-09 M, the IC50 (read-out: IC50 [M] (ProliFiler-140), Hep3B2.1-7 (Liver)) was 1.72e-07 M and the IC50 (read-out: IC50 [M] (ProliFiler-140), Hs 746T (Stomach)) was 7.52e-08 M. For the same compound, the IC50 (read-out: IC50 [M] (ProliFiler-140), Hutu 80 (Duodenum)) was 9.6e-09 M, the IC50 (read-out: IC50 [M] (ProliFiler-140), Ishikawa (Endometrium)) was 3.84e-09 M and the IC50 (read-out: IC50 [M] (ProliFiler-140), J82 (Bladder)) was 9.6e-08 M. The IC50 (read-out: IC50 [M] (ProliFiler-140), JIMT-1 (Breast)) was 1.04e-07 M, the IC50 (read-out: IC50 [M] (ProliFiler-140), JVM-3 (Blood)) was 3.4e-09 M and the IC50 (read-out: IC50 [M] (ProliFiler-140), Jurkat (Blood)) was 6.2e-09 M. The IC50 (read-out: IC50 [M] (ProliFiler-140), K562 (Blood)) was 1.29e-07 M, the IC50 (read-out: IC50 [M] (ProliFiler-140), KG-1 (Blood)) was 1.9e-07 M and the IC50 (read-out: IC50 [M] (ProliFiler-140), LOU-NH91 (Lung)) was 3.45e-08 M. For the same compound, the IC50 (read-out: IC50 [M] (ProliFiler-140), LP-1 (Blood)) was 1.04e-07 M, the IC50 (read-out: IC50 [M] (ProliFiler-140), LnCap (Prostate)) was 2.75e-08 M and the IC50 (read-out: IC50 [M] (ProliFiler-140), MCF-7 (Breast)) was 3.05e-08 M. The IC50 (read-out: IC50 [M] (ProliFiler-140), MDA-MB-468 (Breast)) was 1.87e-08 M, the IC50 (read-out: IC50 [M] (ProliFiler-140), MEC-1 (Blood)) was 1.08e-08 M and the IC50 (read-out: IC50 [M] (ProliFiler-140), MKN-1 (Stomach)) was 1.38e-07 M. For the same compound, the IC50 (read-out: IC50 [M] (ProliFiler-140), MOLM-13 (Blood)) was 5.25e-09 M, the IC50 (read-out: IC50 [M] (ProliFiler-140), MOLT-4 (Blood)) was 8.62e-09 M and the IC50 (read-out: IC50 [M] (ProliFiler-140), MV4-11 (Blood)) was 1.54e-09 M. The IC50 (read-out: IC50 [M] (ProliFiler-140), NALM-6 (Blood)) was 2.5e-09 M, the IC50 (read-out: IC50 [M] (ProliFiler-140), NCI-H82 (Lung)) was 8.78e-08 M and the IC50 (read-out: IC50 [M] (ProliFiler-140), NCI-H292 (Lung)) was 3.77e-08 M. The IC50 (read-out: IC50 [M] (ProliFiler-140), NCI-H838 (Lung)) was 7.44e-08 M, the IC50 (read-out: IC50 [M] (ProliFiler-140), NCI-H1048 (Lung)) was 3.97e-09 M and the IC50 (read-out: IC50 [M] (ProliFiler-140), NCI-H1563 (Lung)) was 1.14e-07 M. The IC50 (read-out: IC50 [M] (ProliFiler-140), NCI-H1573 (Lung)) was 8.97e-08 M, the IC50 (read-out: IC50 [M] (ProliFiler-140), NCI-H1581 (Lung)) was 4.7e-08 M and the IC50 (read-out: IC50 [M] (ProliFiler-140), NCI-H1703 (Lung)) was 5.11e-08 M. The IC50 (read-out: IC50 [M] (ProliFiler-140), NCI-H2110 (Lung)) was 1.81e-08 M, the IC50 (read-out: IC50 [M] (ProliFiler-140), NCI-H2286 (Lung)) was 1.67e-08 M and the IC50 (read-out: IC50 [M] (ProliFiler-140), NCI-N87 (Stomach)) was 7.55e-08 M. For the same compound, the IC50 (read-out: IC50 [M] (ProliFiler-140), OCI-AML3 (Blood)) was 1.32e-08 M, the IC50 (read-out: IC50 [M] (ProliFiler-140), OCI-AML5 (Blood)) was 5.98e-09 M and the IC50 (read-out: IC50 [M] (ProliFiler-140), OCI-LY19 (Blood)) was 2.8e-09 M. The IC50 (read-out: IC50 [M] (ProliFiler-140), OPM-2 (Blood)) was 2.6e-08 M, the IC50 (read-out: IC50 [M] (ProliFiler-140), OV56 (Ovary)) was 7.2e-08 M and the IC50 (read-out: IC50 [M] (ProliFiler-140), OVCAR-3 (Ovary)) was 7.88e-08 M. For the same compound, the IC50 (read-out: IC50 [M] (ProliFiler-140), OVK18 (Ovary)) was 4.6e-08 M, the IC50 (read-out: IC50 [M] (ProliFiler-140), P31/FUJ (Blood)) was 2.25e-08 M and the IC50 (read-out: IC50 [M] (ProliFiler-140), PC3 (Prostate)) was 4e-08 M. For the same compound, the IC50 (read-out: IC50 [M] (ProliFiler-140), PC-9 (Lung)) was 1.41e-08 M, the IC50 (read-out: IC50 [M] (ProliFiler-140), RERF-LC-Ad2 (Lung)) was 1.42e-07 M and the IC50 (read-out: IC50 [M] (ProliFiler-140), RKO (Colon)) was 2.1e-08 M. The IC50 (read-out: IC50 [M] (ProliFiler-140), SCH (Stomach)) was 1.52e-08 M, the IC50 (read-out: IC50 [M] (ProliFiler-140), SCLC-21H (Lung)) was 2.6e-08 M and the IC50 (read-out: IC50 [M] (ProliFiler-140), SK-ES-1 (Bone)) was 2.7e-09 M. It also gave an IC50 (read-out: IC50 [M] (ProliFiler-140), SK-MEL-3 (Skin)) of 1.55e-07 M, an IC50 (read-out: IC50 [M] (ProliFiler-140), SK-N-MC (Brain)) of 1.61e-09 M and an IC50 (read-out: IC50 [M] (ProliFiler-140), SK-N-SH (Brain)) of 1.15e-07 M. The IC50 (read-out: IC50 [M] (ProliFiler-140), SK-OV3 (Ovary)) was 3.7e-08 M, the IC50 (read-out: IC50 [M] (ProliFiler-140), SNU-1 (Stomach)) was 2.27e-08 M and the IC50 (read-out: IC50 [M] (ProliFiler-140), SNU-216 (Stomach)) was 9.2e-08 M. The IC50 (read-out: IC50 [M] (ProliFiler-140), SU-DHL-5 (Blood)) was 2.55e-09 M, the IC50 (read-out: IC50 [M] (ProliFiler-140), SW480 (Colon)) was 5.5e-08 M and the IC50 (read-out: IC50 [M] (ProliFiler-140), SW-1783 (Brain)) was 4.8e-08 M. The IC50 (read-out: IC50 [M] (ProliFiler-140), Saos-2 EC (Bone)) was 6.6e-08 M, the IC50 (read-out: IC50 [M] (ProliFiler-140), T98G (Brain)) was 8.1e-08 M and the IC50 (read-out: IC50 [M] (ProliFiler-140), T-47D (Breast)) was 9.75e-08 M. It also gave an IC50 (read-out: IC50 [M] (ProliFiler-140), U118MG (Brain)) of 1.9e-07 M, an IC50 (read-out: IC50 [M] (ProliFiler-140), U251MG (Brain)) of 1.18e-07 M and an IC50 (read-out: IC50 [M] (ProliFiler-140), U-266 (Blood)) of 9.4e-09 M. The IC50 (read-out: antiproliferative IC50 range, range over 140 cell lines) was 1e-09 to 1e-07 M and the Reductive Activation Index (span over ProliFiler-140 cell lines) was “up to 30 fold”.

Reference: article PMC10141580, “Cyclic Dichalcogenides Extend the Reach of Bioreductive Prodrugs to Harness Thiol/Disulfide Oxidoreductases: Applications to seco-Duocarmycins Targeting the Thioredoxin System” (ACS Central Science, 2023)
